Assay results published in patent publication US4981860A, “Pyridinium nitrate, composition containing same and their use for inhibiting platelet activating factor” (Takeda Chemical Industries, Ltd., priority 1989, dated 1991).
Like-named read-outs stand apart in the source and are kept apart here.

Experiments:
PAF-induced hypotension = experiment: Inhibitory action on PAF-induced hypotension in rats; assay type: in vivo, rat (Sprague-Dawley); details: for Inhibition of hypotensive effect: PAF 1 μg/kg i.v.
Protocol: Male Sprague-Dawley rats weighing about 250 g were used. Cannulas were inserted into the unilateral femoral artery for measurement of blood pressure and into the unilateral femoral vein for administration of the drug solution. Blood pressure was measured via a pressure transducer and recorded on a polygraph. Blood pressure decrease was measured after intravenous (i.v.) injection of PAF at 1 μg/kg, and then the test substance [the compound (6) in Production Example 1] was given intravenously or orally; PAF at 1 μg/kg was given intravenously 5 minutes and 1, 2, 4, 6, and 8 hours after the intravenous injection, and 1, 2, 4, 6 and 8 hours after the oral administration, and the blood pressure decrease was measured.
The inhibitory action on PAF-induced hypotension was expressed in the ratio of decrement of blood pressure due to PAF before the treatment with the test substance (mmHg) to the decrement after the treatment with the test substance (mmHg).

Acute toxicity in mice = assay type: in vivo, mouse (Jcl-ICR)
Description: Male J cl-ICR mice (5 animals) (aged 5 weeks) were used.

[1] = test system: PAF-induced airway constriction; experiment: Inhibition of PAF in tracheal obstruction (PAF-induced airway constriction); assay type: in vivo, guinea pig (Hartley); details: 0.03 mg/kg i.v., two minutes before PAF (0.3 μg/kg i.v.)
Protocol: Male and female Hartley guinea pigs weighing about 400 g each were used. The animal was fixed in the supine position under anesthesia with urethane (1.5 g/kg, i.p.), one of the 4 branches of a cannula was inserted into the trachea, and two of the other 3 branches were connected to a respirator (Harvard apparatus rodent respirator). The last branch was connected to a bronchospasm transducer 7020 (Ugobasile). Air was pumped into the lung at the rate of 5 to 7 ml at a time and 70 times per minutes at the loading pressure to the lung of 10 cm H2 O, and the volume of the overflown air was recorded via a transducer on the Rectigraph (Rectigraph-8S, San-ei Sokki). After treatment with gallamine triethodide (1 mg/kg, i.v.), histamine dihydrochloride (10 μg/kg) was intravenously injected, and the responsiveness of the animal was investigated. Thirty seconds after intravenous injection of PAF (0.3 μg/kg), a maximal airway constriction was observed. Under the conditions, the test substance [the compound (6) obtained in the Production Example 1] was examined for its inhibitory action. The test substance was dissolved in physiological saline, and given intravenously two minutes before PAF administration.

[2] = test system: Reversed passive Arthus reaction; experiment: Reversed passive Arthus reaction in rat; assay type: in vivo, rat (Sprague-Dawley); details: iv, given intravenously, read-out: ID50 (inhibition of Arthus reaction, area stained blue)
Protocol: Hair was removed at the back of a male Sprague-Dawley rat (7-week-old, weighing about 250 g) under slight anesthesia with ether and a solution of the test substance [the compound (6) obtained in the Production Example 1] in physiological saline was injected into the caudal vein at the dose of 0.2 ml per 100 g of body weight. Immediately 1 ml of 0.5% antigenic egg albumin solution in physiological saline was injected into the caudal vein. Immediately 0.1 ml of the rabbit anti-egg albumin antiserum (containing 6 mg protein antibody/ml) was given subcutaneously at a site each on the right and the left side of the back. Three hours later, 1 ml of 1% Evans Blue solution in physiological saline was injected intravenously, the skin was removed after 30 minutes, and the area stained blue was measured (in mm^2). The extent of inhibition was calculated by comparing the area with that in the group without treatment with the test substance.

[3] = test system: PAF-induced rabbit platelet aggregation; experiment: Inhibition of PAF-induced rabbit platelet aggregation (platelet rich plasma); assay type: cell-based; details: Oryctolagus cuniculus, read-out: rate of inhibition of PAF-induced rabbit platelet aggregation
Protocol: Blood was drawn from a male rabbit directly by cardiopuncture with a syringe containing 3.15% citric acid as an anticoagulant (one volume to 9 volumes of blood). By centrifugation at 800 rpm for 10 minutes at room temperature, platelet rich plasma (PRP) was obtained. The residual blood was centrifuged again at 3000 rpm for 10 minutes to give platelet poor plasma (PPP) as the supernatant. PRP was diluted with PPP so that the platelet count might be adjusted to about 500,000 cells/μl. 250 μl of this PRP was stirred at 37° C. for 2 minutes, and the test substance [the compound (6) obtained in Production Example 1] was added. The mixture was stirred again for 2 minutes, followed by the addition of PAF of a certain concentration. Platelet aggregation was measured with a platelet aggregometer (manufactured by Rika Denki Co. in Japan). The aggregation inhibition by the test substance was determined as the percentage of reduction from the maximal transmittance (the maximal aggregation) by PAF in the control PRP.

[4] = test system: endotoxin (ET)-induced hypotension; experiment: Reversal of endotoxin (ET)-induced hypotension in rats; assay type: in vivo, rat (SD); details: Rattus norvegicus, iv; given eight minutes after ET (15 mg/kg)
Protocol: Method: Male SD rats were anesthetized with sodium pentobarbital, and the right femoral artery and left femoral vein were cannulated for blood pressure measurement and for injection of the compound (6) obtained in the Production Example 1 or ET (E. Coli, 0111, B4), respectively. The compound (6) obtained in the Production Example 1 was given eight minutes after the injection of ET (15 mg/kg).

acute renal failure = experiment: Effect on acute renal failure in rats (renal artery occlusion/reperfusion); assay type: in vivo, rat (Sprague Dawley (Jcl)); details: 30 mg/kg oral, 1 hour prior to occlusion
Protocol: Method: Male Sprague Dawley (Jcl) rats, 5 weeks old, were anesthetized with sodium pentobarbital (50 mg/kg, i.p.) and the renal artery was occluded bilaterally for 45 minutes followed by reperfusion for 20 hours. The blood was collected from the abdominal aorta under anesthesia for measurement of blood urea nitrogen (BUN).
Results: The concentration of BUN was markedly elevated 20 hours after reperfusion.

[5] = test system: death induced by anaphylactic shock; experiment: Protective effect against death induced by anaphylactic shock in mice; assay type: in vivo; details: Mus musculus, iv, 1 h; i.v. 5 min before rechallenge with BSA (1 mg/kg, i.v.); survival at 60 min; read-out: ED50 (protection from anaphylactic shock)
Protocol: Method: Male mice were sensitized with bovine serum albumin (BSA) and killed Bordetella pertussis. Two to three weeks later, the mice were rechallenged with BSA (1 mg/kg, i.v.). Survival rate was determined 60 min after the injection of BSA. The compound (6) obtained in the Production Example 1 was given i.v. 5. min. before the rechallenge with BSA.

[6] = test system: endotoxin-induced disseminated intravascular coagulation (DIC); experiment: Inhibition of experimental disseminated intravascular coagulation (DIC) in rats; assay type: in vivo, rat (SD)
Protocol: Method: Male SD rats were anesthetized with sodium pentobarbital. Endotoxin (E. Coli, 0111, B4) (ET) was infused into the right femoral vein at a rate of 250 μg/kg/hr for 4 hr. The compound (6) obtained in the Production Example 1 (Test compound) at a dose of 200 μg/kg was given i.v. bolus 5 min. before the infusion of ET and was then infused at a rate of 200 μg/kg/hr for 4 hr.

[7] = Stability test in the form of powders (30 days of storage, HPLC content); assay type: physicochemical; details: for remaining at 720 h: 30 days, powder in closed glass bottles, read-out: remaining percentage
Protocol: The compounds obtained were examined for their stability in the form of powders. […] Procedure: About 100 mg each of the test substance was placed into glass bottles, which were then closed tightly and kept at room temperature (20±2° C.) and at 40° C. (not for the control compound) for 30 days. Determination of the content: An aliquot of the test substance was dissloved in the mobile phase for high performance liquid chromatography [acetonitrile:methanol:0.1% phosphoric acid=900:240:2100] and the content was determined by HPLC.
Conditions of HPLC: column YMC ODS A302 4.6×150 mm

[8] = test system: endotoxin (ET)-induced death; experiment: Inhibition of endotoxin (ET)-induced death in rats; assay type: in vivo, rat (SD)
Protocol: Method: Male SD rats were used. ET (E. Coli, 0111, B4) (15 mg/kg) was given i.v. 5 min after the injection of the compound (6) obtained in the Production Example 1.

Structure (SMILES): CCC[n+]1cc(Br)cc(C(=O)N(CCC(=O)NCCOC(=O)N2CCc3ccccc3C2)c2ccccc2)c1.O=[N+]([O-])[O-] [Compound (6), 3-bromo-5-[N-phenyl-N-[2-[[2-(1,2,3,4-tetrahydro-2-isoquinolylcarbonyloxy)ethyl]carbamoyl]ethyl]carbamoyl]-1-propylpyridinium nitrate]
- Inhibition of hypotensive effect (PAF-induced hypotension; 0.01 mg/kg i.v., 5 minutes): 93%
- Inhibition of hypotensive effect (PAF-induced hypotension; 0.01 mg/kg i.v., 1 hour): 84%
- Inhibition of hypotensive effect (PAF-induced hypotension; 0.01 mg/kg i.v., 2 hour): 68%
- Inhibition of hypotensive effect (PAF-induced hypotension; 0.01 mg/kg i.v., 4 hour): 48%
- Inhibition of hypotensive effect (PAF-induced hypotension; 0.01 mg/kg i.v., 6 hour): 44%
- Inhibition of hypotensive effect (PAF-induced hypotension; 0.01 mg/kg i.v., 8 hour): 24%
- Inhibition of hypotensive effect (PAF-induced hypotension; 1 mg/kg p.o., 1 hour): 69%
- Inhibition of hypotensive effect (PAF-induced hypotension; 1 mg/kg p.o., 2 hour): 87%
- Inhibition of hypotensive effect (PAF-induced hypotension; 1 mg/kg p.o., 4 hour): 82%
- Inhibition of hypotensive effect (PAF-induced hypotension; 1 mg/kg p.o., 6 hour): 76%
- Inhibition of hypotensive effect (PAF-induced hypotension; 1 mg/kg p.o., 8 hour): 69%
- PAF-antagonism after oral administration (in words) (PAF-induced hypotension; general statement, oral): excellent PAF-antagonism even after oral administration
- death until one week later (acute toxicity, intravenous) (Acute toxicity in mice; 10 mg/kg intravenously, male mice, 5 animals): no death was observed
- death until one week later (acute toxicity, oral) (Acute toxicity in mice; 1000 mg/kg orally, male mice, 5 animals): no death was observed
- toxicity (in words) (Acute toxicity in mice; general statement): low toxicity
- inhibition of PAF-induced airway constriction [1]: 91.3%
- ED50 [2]: 1.2 µg/kg
- inhibition at 3 µM ([3]; 3 × 10^-6 M): 100%
- inhibition at 0.3 µM ([3]; 3 × 10^-7 M): 100%
- inhibition at 0.03 µM ([3]; 3 × 10^-8 M): 71%
- ED50 [4]: 1.2 µg/kg
- effect on elevation of BUN (in words) (acute renal failure): inhibited significantly the elevation of BUN
- Blood urea nitrogen (BUN) (acute renal failure; 20 hours after reperfusion, P<0.05, control 110 ± 4): 88 ± 2 mg/dL
- ED50 [5]: 2.6 µg/kg
- Fybrinogen ([6]; 200 μg/kg before ET, then 200 μg/kg/hr for 4 hr, P<0.01 vs control, control 0.3 ± 0.1, normal 2.7 ± 0.1): 1.2 ± 0.3 mg/ml plasma
- FDP ([6]; 200 μg/kg before ET, then 200 μg/kg/hr for 4 hr, P<0.01 vs control, control 16.8 ± 2.3, normal 0.5 ± 0.0): 4.6 ± 0.8 μg/ml plasma
- PT (prothrombin time) ([6]; 200 μg/kg before ET, then 200 μg/kg/hr for 4 hr, P<0.01 vs control, control 18.9 ± 1.3, normal 11.2 ± 0.2): 14.0 ± 0.4 s
- Platelets ([6]; 200 μg/kg before ET, then 200 μg/kg/hr for 4 hr, P<0.01 vs control, control 23 ± 3, normal 71 ± 3): 40 ± 4 × 10^4 /μl
- APTT (activated partial thromboplastin time) ([6]; 200 μg/kg before ET, then 200 μg/kg/hr for 4 hr, P<0.01 vs control, control 58.3 ± 3.6, normal 35.3 ± 1.3): 42.8 ± 1.5 s
- effect on changes in DIC parameters (in words) ([6]; 200 μg/kg i.v. bolus + 200 μg/kg/hr for 4 hr): significantly inhibited the changes in these DIC parameters
- stability (in words) ([7]; general statement, compared with the corresponding chloride): more stable than the corresponding chloride
- remaining at 720 h ([7]; powder, closed glass bottles, at 40° C.): 99.3%
- remaining at 720 h ([7]; powder, closed glass bottles, at room temperature (20±2° C.)): 100%
- Survival rate ([8]; 10 μg/kg i.v. 5 min before ET 15 mg/kg i.v., 6 day): 30%
- Survival rate ([8]; 100 μg/kg i.v. 5 min before ET 15 mg/kg i.v., 22 hr, P<0.05 vs control): 60%
- Survival rate ([8]; 100 μg/kg i.v. 5 min before ET 15 mg/kg i.v., 6 day, P<0.05 vs control): 40%
- effect on survival rate of rats (in words) ([8]; 100 μg/kg, almost 1 week): significantly improved the survival rate

Structure (SMILES): CCC[n+]1cc(Br)cc(C(=O)N(CCC(=O)NCCOC(=O)N2CCc3ccccc3C2)c2ccccc2)c1 [Compound (7), 3-Bromo-5-[N-phenyl-N-[2-[[2-(1,2,3,4-tetrahydro-2-isoquinolylcarbonyloxy)ethyl]carbamoyl]ethyl]carbamoyl]-1-propylpyridinium chloride, reference compound]
- remaining at 720 h ([7]; at room temperature (20±2° C.)): 65%
